These results are taken from US20160229839A1, “Factor XIa Inhibitors” (Merck Sharp & Dohme Corp., priority 2013, published 2016).

Where only a bound is given, the exact number is not on record here.

The test addresses T1, purified human Factor XIa (Homo sapiens, UniProt P03951).
T1 construct: purified human Factor XIa; purchased Sekisui Diagnostics
In words: Factor XIa Assay (fluorogenic substrate Z-Gly-Pro-Arg-AFC). It is filed as biochemical. To be noted: purified human Factor XIa 40 pM; Z-Gly-Pro-Arg-AFC 100 μM; 50 mM HEPES pH 7.4; read-out: hFXIa Ki (nM), Factor XIa inhibition. As for the experimental part: The effectiveness of compound of the present invention as inhibitors of Coagulation Factor XIa can be determined using a relevant purified serine protease, and an appropriate synthetic substrate. The rate of hydrolysis of the chromogenic or fluorogenic substrate by the relevant serine protease was measured both in the absence and presence of compounds of the present invention. Assays were conducted at room temperature or at 37° C. […] A decrease in the rate of fluorescence change in the presence of inhibitor is indicative of enzyme inhibition. Such methods are known to one skilled in the art. The results of this assay are expressed as the inhibitory constant, Ki.
Factor XIa determinations were made in 50 mM HEPES buffer at pH 7.4 containing 150 mM NaCl, 5 mM CaCl2, and 0.1% PEG 8000 (polyethylene glycol; J T Baker or Fisher Scientific). Determinations were made using purified human Factor XIa at a final concentration of 40 pM (Sekisui Diagnostics) and he synthetic substrate, Z-Gly-Pro-Arg-AFC, TFA salt (Sigma #C0980) at a concentration of 100 μM.
Activity assays were performed by diluting a stock solution of substrate at least tenfold to a final concentration ≦0.1 Km into a solution containing enzyme or enzyme equilibrated with inhibitor. Times required to achieve equilibration between enzyme and inhibitor were determined in control experiments. Initial velocities of product formation in the absence (Vo) or presence of inhibitor (Vi) were measured. Assuming competitive inhibition, and that unity is negligible compared Km/[S], [I]/e, and [I]/e (where [S], [I], and e respectively represent the total concentrations, of substrate, inhibitor and enzyme), the equilibrium constant (Ki) for dissociation of the inhibitor from the enzyme can be obtained from the dependence of Vo/Vi on [I] shown in the following equation.

T1 sequence (P03951 388-625 limits assumed): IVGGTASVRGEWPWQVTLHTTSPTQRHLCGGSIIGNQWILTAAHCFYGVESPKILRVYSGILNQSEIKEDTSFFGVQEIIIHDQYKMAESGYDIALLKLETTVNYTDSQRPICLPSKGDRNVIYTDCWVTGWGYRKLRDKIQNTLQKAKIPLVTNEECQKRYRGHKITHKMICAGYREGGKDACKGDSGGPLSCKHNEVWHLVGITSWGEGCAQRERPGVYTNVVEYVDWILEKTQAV
T1 sequence (P03951 19-387 partner limits assumed): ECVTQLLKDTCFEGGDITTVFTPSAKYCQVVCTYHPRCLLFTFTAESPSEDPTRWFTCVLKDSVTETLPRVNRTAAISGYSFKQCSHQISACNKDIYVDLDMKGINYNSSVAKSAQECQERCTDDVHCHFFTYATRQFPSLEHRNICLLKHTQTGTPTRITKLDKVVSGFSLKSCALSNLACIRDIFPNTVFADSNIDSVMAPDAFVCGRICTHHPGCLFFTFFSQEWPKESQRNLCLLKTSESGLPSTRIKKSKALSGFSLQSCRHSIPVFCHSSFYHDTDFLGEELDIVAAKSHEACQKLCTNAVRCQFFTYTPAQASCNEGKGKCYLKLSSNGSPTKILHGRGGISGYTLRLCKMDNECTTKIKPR

In the case of `O=C(O)c1ccc(NC(=O)C2CCC(c3ccccc3)CN2C(=O)/C=C/c2cc(Cl)ccc2-n2cnnn2)cc1` (stereo not drawn) [Example 1-71, (E)-4-(1-(3-(5-chloro-2-(1H-tetrazol-1-yl)phenyl)acryloyl)-5-phenylpiperidine-2-carboxamido)benzoic acid], the Ki (usually a dissociation constant, usually derived from enzyme kinetics or from competition with a known ligand) came to 2610 nM.

On to `O=C(O)c1ccc(NC(=O)C2C(c3cccc(C(F)(F)F)c3)CCCN2C(=O)/C=C/c2cc(Cl)ccc2-n2cnnn2)cc1` (stereo not drawn) [Example 1-17, ammonium (E)-4-(1-(3-(5-chloro-2-(1H-tetrazol-1-yl)phenyl)acryloyl)-3-(3-(trifluoromethyl)phenyl)piperidine-2-carboxamido)benzoate], for which the Ki turned out to be 2850 nM.

For `O=C(/C=C/c1cc(Cl)ccc1-n1cnnn1)N1CCCC(c2ccccc2)C1c1nc(-c2cccnc2)c[nH]1` (stereo not drawn) [Example 1-7, (E)-3-(5-chloro-2-(1H-tetrazol-1-yl)phenyl)-1-(3-phenyl-2-(4-(pyridin-3-yl)-1H-imidazol-2-yl)piperidin-1-yl)prop-2-en-1-one], the Ki was 905 nM.

In the case of `O=C(O)c1cccc(-c2c[nH]c(C3C(c4ccccc4)CCCN3C(=O)/C=C/c3cc(Cl)ccc3-n3cnnn3)n2)c1` (stereo not drawn) [Example 1-58, (E)-3-(2-(1-(3-(5-chloro-2-(1H-tetrazol-1-yl)phenyl)acryloyl)-3-phenylpiperidin-2-yl)-1H-imidazol-4-yl)benzoic acid], the Ki turned out to be 56.9 nM.

`N[C@H]1CCc2cc(C(=O)N3CCCC(c4ccccc4)C3C(=O)Nc3ccc(C(=O)O)cc3)ccc21` (stereo partly drawn) [Example 1-16, 4-(1-((S)-1-amino-2,3-dihydro-1H-indene-5-carbonyl)-3-phenylpiperidine-2-carboxamido)benzoic acid]: the Ki turned out to be 619 nM.

Regarding `O=C(O)c1ccc(NC(=O)C2C(c3ccccc3)CCCN2C(=O)CCc2cc(Cl)ccc2-n2cnnn2)cc1` (stereo not drawn) [Example 1-9, 4-(1-(3-(5-chloro-2-(1H-tetrazol-1-yl)phenyl)propanoyl)-3-phenylpiperidine-2-carboxamido)benzoic acid], the Ki was found to be 57.1 nM.

As to `O=C(Nc1ccc2[nH]ncc2c1)[C@@H]1[C@H](c2ccccc2)CCCN1C(=O)/C=C/c1cc(Cl)ccc1-n1cnnn1` [Example 1-65, (2S,3S)-1-((E)-3-(5-chloro-2-(1H-tetrazol-1-yl)phenyl)acryloyl)-N-(1H-indazol-5-yl)-3-phenylpiperidine-2-carboxamide], the inhibition constant Ki came out at 31.4 nM.

Regarding `O=C(/C=C/c1cc(Cl)ccc1-n1cnnn1)N1CCCC(c2ccccc2)C1c1nc(-c2cccc(C(F)(F)F)c2)c[nH]1` (stereo not drawn) [Example 1-31, (E)-3-(5-chloro-2-(1H-tetrazol-1-yl)phenyl)-1-(3-phenyl-2-(4-(3-(tifluoromethyl)phenyl)-1H-imidazol-2-yl)piperidin-1-yl)prop-2-en-1-one], the Ki was above 10000 nM.

As to `COC(=O)Nc1ccc(-c2nc([C@H]3[C@@H](c4ccccc4)CCCN3C(=O)/C=C/c3cc(Cl)ccc3-n3cnnn3)[nH]c2Cl)cc1` [Example 1-64, methyl (4-(5-chloro-2-((2R,3R)-1-((E)-3-(5-chloro-2-(1H-tetrazol-1-yl)phenyl)acryloyl)-3-phenylpiperidin-2-yl)-1H-imidazol-4-yl)phenyl)carbamate], the Ki is above 10000 nM.

For the molecule `NCc1ccc(C(=O)N2CCCC(c3ccccc3)C2C(=O)Nc2ccc(C(=O)O)cc2)cc1C1CC1` (stereo not drawn) [Example 1-43, (4-(2-((4-carboxyphenyl)carbamoyl)-3-phenylpiperidine-1-carbonyl)-2-cyclopropylphenyl)methanaminium 2,2,2-trifluoroacetate], the Ki worked out at 169 nM.

In the case of `NCC1CCC(C(=O)N2CCCC(c3ccccc3)C2C(=O)Nc2ccc(C(=O)O)cc2)CC1` (stereo not drawn) [Example 1-50, 4-(1-(4-(aminomethyl)cyclohexanecarbonyl)-3-phenylpiperidine-2-carboxamido)benzoic acid], the Ki amounted to 72.8 nM.

On to `O=C(O)c1cccc(-c2c[nH]c([C@@H]3[C@H](c4ccccc4)CCCN3C(=O)/C=C/c3cc(Cl)ccc3-n3cnnn3)n2)c1` (single isomer, unassigned) [Example 1-69], for which the Ki came to 19.3 nM.

As for `O=C(O)c1ccc(NC(=O)[C@H]2[C@@H](c3ccccc3)CCCN2C(=O)/C=C/c2cc(Cl)ccc2-n2cnnn2)cc1` [Example 1-56, 4-((2R,3R)-1-((E)-3-(5-chloro-2-(1H-tetrazol-1-yl)phenyl)acryloyl)-3-phenylpiperidine-2-carboxamido)benzoic acid], the Ki was 4010 nM.

`O=C(O)c1ccc(NC(=O)C2C(c3cccc(F)c3)CCCN2C(=O)/C=C/c2cc(Cl)ccc2-n2cnnn2)cc1` (stereo not drawn) [Example 1-10, (E)-4-(1-(3-(5-chloro-2-(H-tetrazol-1-yl)phenyl)acryloyl)-3-(3-fluorophenyl)piperidine-2-carboxamido)benzoic acid]: the Ki stood at 18.1 nM.

Consider `COC(=O)Nc1ccc(-c2c[nH]c(C3C(c4ccccc4)CCCN3C(=O)/C=C/c3cc(Cl)ccc3-n3cnnn3)n2)c(N)c1` (stereo not drawn) [Example 1-48, (E)-methyl (3-amino-4-(2-(1-(3-(5-chloro-2-(1H-tetrazol-1-yl)phenyl)acryloyl)-3-phenylpiperidin-2-yl)-1H-imidazol-4-yl)phenyl)carbamate], for which the Ki is 103 nM.

For the molecule `O=C(O)c1ccc(NC(=O)C2C(c3ccc(F)cc3)CCCN2C(=O)/C=C/c2cc(Cl)ccc2-n2cnnn2)cc1` (stereo not drawn) [Example 1-18, ammonium (E)-4-(1-(3-(5-chloro-2-(1H-tetrazol-1-yl)phenyl)acryloyl)-3-(4-fluorophenyl)piperidine-2-carboxamido)benzoate], the Ki came out at 25.3 nM.

Consider `O=C(/C=C/c1cc(Cl)ccc1-n1cnnn1)Nc1ccc(C2CCCN(C(=O)/C=C/c3cc(Cl)ccc3-n3cnnn3)C2C(=O)Nc2ccc(C(=O)O)cc2)cc1` (stereo not drawn) [Example 1-34, 4-(3-(4-((E)-3-(5-chloro-2-(1H-tetrazol-1-yl)phenyl)acrylamido)phenyl)-1-((E)-3-(5-chloro-2-(1H-tetrazol-1-yl)phenyl)acryloyl)piperidine-2-carboxamido)benzoic acid], for which the Ki turned out to be 24.9 nM.

With `Nc1ccc(C2CCCN(C(=O)/C=C/c3cc(Cl)ccc3-n3cnnn3)C2C(=O)Nc2ccc(C(=O)O)cc2)cc1` (stereo not drawn) [Example 1-33, (E)-4-(3-(4-aminophenyl)-1-(3-(5-chloro-2-(1H-tetrazol-1-yl)phenyl)acryloyl)piperidine-2-carboxamido)benzoic], the Ki amounted to 46.7 nM.

`O=C(O)c1cccc(-c2c[nH]c([C@H]3[C@@H](c4ccccc4)CCCN3C(=O)/C=C/c3cc(Cl)ccc3-n3cnnn3)n2)c1` (single isomer, unassigned) [Example 1-70]: the Ki stood at 5730 nM.

`COC(=O)Nc1ccc(-c2c[nH]c(C3C(c4ccccc4)CCCN3C(=O)/C=C/c3cc(Cl)ccc3-n3cnnn3)n2)c(Br)c1` (stereo not drawn) [Example 1-44, (E)-methyl (3-bromo-4-(2-(1-(3-(5-chloro-2-(1H-tetrazol-1-yl)phenyl)acryloyl)-3-phenylpiperidin-2-yl)-1H-imidazol-4-yl)phenyl)carbamate]: the Ki was determined as 411 nM.

As for `O=C(Nc1ccc2cn[nH]c2c1)C1C(c2ccccc2)CCCN1C(=O)/C=C/c1cc(Cl)ccc1-n1cnnn1` (stereo not drawn) [Example 1-61, (E)-1-(3-(5-chloro-2-(1H-tetrazol-1-yl)phenyl)acryloyl)-N-(1H-indazol-6-yl)-3-phenylpiperidine-2-carboxamide], the Ki amounted to 91.6 nM.
